Experimental data published in patent US9687456B2, “Nutritional compositions for modulating inflammation including exogenous vitamin K2” (NESTEC S.A., priority 2009, dated 2017).

Key:
Format in all cases: in vivo, Sprague-Dawley rats
[1] = test system: plasma TNF-a; test: LPS-induced inflammation in rats: plasma TNF-a; settings: oral gavage 25 or 50 microgram daily over 7 days, LPS 0.5 mg/kg IP on Day 7, sacrifice four hours later, compared to LPS treated animals
Experimental: (§1) Male Sprague-Dawley rats (175 g) are kept on a 12-h light:dark cycle with food (Harlan-Teklad Rodent Chow, Madison, Wis.) and water provided freely. Animals are administered daily doses of vitamin K2 (MK-7) or saline (control) via oral gavage over 7 days. Stock solutions of vitamin K2 are prepared containing 3.5 g/L HCO-60 and 1 g/L of […] in buffer A (0.15 M NaCl, 0.05 M Tris-HCl, pH 7.5). The K2 is dissolved by sonication during five pulses of 5 set with an amplitude of 6 pm. Solutions thus obtained are clear, homogeneous, and stable. Shortly before vitamin K administration the stock solutions are diluted five times with buffer A, leading to a final HCO-60 concentration of 0.7 g/L. Further dilutions (as required) are made with 0.7 g/L HCO-60 in buffer A. Each dilution step is followed by sonication as described above. In all cases vitamin K2 is administered to the rats in 0.5 mL samples, with either 25 or 50 microgram oral doses.
On the final day (Day 7), rodents are administered vitamin K2 and 2 hours later were given an IP dose of LPS (Escherichia coli serotype O111:B4, L2630, Sigma) intraperitoneally (0.5 mg/kg of body weight). Four hours later animals are sacrificed.

[2] = test system: NFκB p65 (Ser536); test: LPS-treated rats: gastrocnemius muscle immunoblot, phosphorylated p65; settings: oral 25 or 50 microgram daily over 7 days, LPS IP, compared to LPS treatment
Experimental: (§2) Male Sprague-Dawley rats (175 g) are kept on a 12-h light:dark cycle with food (Harlan-Teklad Rodent Chow, Madison, Wis.) and water provided freely. Animals are administered daily doses of vitamin K2 (MK-7) or saline (control) via oral gavage over 7 days. Stock solutions of vitamin K2 are prepared containing 3.5 g/L HCO-60 and 1 g/L of […] in buffer A (0.15 M NaCl, 0.05 M Tris-HCl, pH 7.5). The K2 is dissolved by sonication during five pulses of 5 set with an amplitude of 6 pm. Solutions thus obtained are clear, homogeneous, and stable. […]
(§3) Analysis of mTOR Signaling to eIFs—Gastrocnemius muscles are weighed and homogenized in 7 volumes of buffer containing 20 mM HEPES (pH 7.4), 100 mM potassium chloride, 0.2 mM EDTA, 2 mM EGTA, 50 mM sodium fluoride, 50 mM glycerophosphate, 0.1 mM phenylmethylsulfonyl fluoride, 1 mM benzamidine, 1 mM dithiothreitol (DTT), and 0.5 mM sodium vanadate. […] Samples are analyzed for the phosphorylation status of 4E-BP1 (Thr37) and ribosomal protein S6 (Ser 235/236), the anti-phosphospecific antibodies were obtained from Cell Signaling Technology, Beverly, Mass. Additionally, samples are analyzed for phosphorylated IKKα/β (Ser176/180; Cell Signaling Technology) and phosphorylated p65 (Ser536; Cell Signaling Technology).

[3] = test system: mixed muscle protein synthesis; test: LPS-treated rats: fractional rate of mixed muscle protein synthesis (Ks), radioactive phenylalanine incorporation; settings: oral 25 or 50 microgram daily over 7 days, LPS IP, conditions of inflammatory sepsis, compared to LPS treatment
Experimental: as §1, with “doses. […]” for “doses.”
Measurement of Protein Synthesis—The fractional rate of synthesis (Ks) is estimated from the rate of incorporation of radioactive phenylalanine into total mixed muscle protein using the specific radioactivity of serum phenylalanine as representative of the precursor pool. […]

[4] = test system: IKKα/β (Ser176/180); test: LPS-treated rats: gastrocnemius muscle immunoblot, phosphorylated IKKα/β; settings: oral 25 or 50 microgram daily over 7 days, LPS IP, compared to LPS treatment
Experimental: as §2, §3

[5] = test system: 4E-BP1 (Thr37); test: LPS-treated rats: mTOR signaling to eIFs, 4E-BP1 phosphorylation in gastrocnemius muscle; settings: oral 25 or 50 microgram daily over 7 days, LPS IP, compared to LPS treatment
Experimental: as §2, §3

[6] = test system: ribosomal protein S6 (Ser 235/236); test: LPS-treated rats: mTOR signaling to eIFs, ribosomal protein S6 phosphorylation in gastrocnemius muscle; settings: oral 25 or 50 microgram daily over 7 days, LPS IP, compared to LPS treatment
Experimental: as §2, §3

## CC(C)=CCC/C(C)=C/CC/C(C)=C/CC/C(C)=C/CC/C(C)=C/CC/C(C)=C/CC/C(C)=C/CC1=C(C)C(=O)c2ccccc2C1=O [K2, vitamin K2 (MK-7)]
[1]
  rise of plasma TNF-a: significant decrease in the rise
[2]
  NFκB p65 induction: significant blunting
[3]
  fractional rate of mixed muscle protein synthesis: greater preservation
[4]
  phosphorylation for IKKα/β: significant blunting of the drop in phosphorylation
[5]
  4E-BP1(Thr-37) phosphorylation: abrogates the decrease
[6]
  ribosomal protein S6 phosphorylation: abrogates the decrease
